Experimental data taken from patent US12723063B2, “GIPR-agonist compounds” (Eli Lilly and Company, priority 2019, dated 2026).
*1 amine or outer side, *2 acyl side, *3 side chain or, on linkers, in order; H or OH if unused. Where a SMILES comes first, the peptide text is derived from it. Side-chain parts run from the residue outwards. [ ]: non-standard residue; d: D form. The star is where a group is joined. C20 diacid = O=C(O)CCCCCCCCCCCCCCCCCCC(=O)*; C18 diacid = O=C(O)CCCCCCCCCCCCCCCCC(=O)*; αMePhe(2-F) = C[C@](N)(Cc1ccccc1F)C(=O)O; γGlu = O=C(O)[C@H](CCC(=O)[*:2])N[*:1]; 4Pal = N[C@@H](Cc1ccncc1)C(=O)O; αMeL = CC(C)C[C@](C)(N)C(=O)O; Orn = NCCC[C@H](N)C(=O)O; AEEA = NCCOCCOCC(=O)O; Aib = CC(C)(N)C(=O)O

Assays:
Assay in all cases: cAMP functional assay (HTRF) in HEK293 cells in presence of 0.1% casein
Type in all cases: cell-based
[1] = target: T1, human glucagon receptor (GcgR) (Homo sapiens, UniProt P47871); conditions: HEK293 cells expressing human GcgR, geometric mean, read-out: hGcgR cAMP Rel EC50 nM (SEM, n)
T1 construct: expressed in transfected cells; host or cells: HEK293
T1 sequence (P47871 26-477): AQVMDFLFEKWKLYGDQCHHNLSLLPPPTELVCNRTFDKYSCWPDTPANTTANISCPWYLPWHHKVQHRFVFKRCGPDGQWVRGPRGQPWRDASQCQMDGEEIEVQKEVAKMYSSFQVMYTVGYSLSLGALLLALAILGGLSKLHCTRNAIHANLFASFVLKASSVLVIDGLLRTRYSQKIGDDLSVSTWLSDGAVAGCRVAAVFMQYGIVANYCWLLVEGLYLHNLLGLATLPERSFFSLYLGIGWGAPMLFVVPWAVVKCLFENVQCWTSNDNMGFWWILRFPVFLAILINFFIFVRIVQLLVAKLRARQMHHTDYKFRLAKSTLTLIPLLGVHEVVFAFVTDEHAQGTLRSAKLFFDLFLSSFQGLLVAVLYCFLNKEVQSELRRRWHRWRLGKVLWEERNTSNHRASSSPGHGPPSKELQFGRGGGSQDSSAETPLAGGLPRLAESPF
Description: (§1) Each receptor over-expressing cell line (20 μl) is treated with the test peptide in DMEM (Gibco Cat #31053) supplemented with 0.1% Casein (Sigma Cat #C4765), 250 μM IBMX, 1× GlutaMAX™ (Gibco Cat #35050), and 20 mM HEPES (HyClone Cat #SH30237.01) in a 20 μl assay volume. After incubating for 60 minutes at room temperature, the resulting increase in intracellular CAMP is quantitatively determined using the CisBio CAMP Dynamic 2 HTRF Assay Kit (62AM4PEJ). The Lysis buffer containing cAMP-d2 conjugate (20 μl) and the antibody anti-cAMP-Eu3+-Cryptate (20 μl) are then added to determine the cAMP level. After incubating 60 minutes at room temperature, HTRF signal is detected with an Envision 2104 plate reader (PerkinElmer). Fluorescent emission at 620 nm and at 665 nm is measured and the ratio between 620 nm and at 665 nm is calculated and then are converted to nM cAMP per well using a cAMP standard curve. Dose response curves of compounds are plotted as the percentage of stimulation normalized to minimum (buffer only) and maximum (maximum concentration of each control ligand) values and analyzed using a four parameter non-linear regression fit with a variable slope (Genedata Screener 13). EC50 is the concentration of compound causing half-maximal simulation in a dose response curve. A relative EC50 value is derived by non-linear regression analysis using the percent maximal response vs, the concentration of peptide added, fitted to a four-parameter logistic equation.
(§2) Intracellular cAMP levels are determined by extrapolation using a standard curve. Dose response curves of compounds are plotted as the percentage of stimulation normalized to minimum (buffer only) and maximum (maximum concentration of each control ligand) values and analyzed using a four-parameter non-linear regression fit with a variable slope (Genedata Screener 13). EC50 is the concentration of compound causing half-maximal simulation in a dose response curve. Each relative EC50 value for the geometric mean calculation is determined from a curve fitting.
(§3) Concentration response curves of compounds are plotted as the percentage of stimulation normalized to minimum (buffer only) and maximum (maximum concentration of each control ligand) values and analyzed using a four-parameter non-linear regression fit with a variable slope (Genedata Screener 13). EC50 is the concentration of compound causing half-maximal simulation in a dose response curve. […] The standard error of the mean is reported:
(§4) [formula] • The log transform accounts for the EC50 values falling on a multiplicative, rather than an arithmetic scale.
(§5) For illustration, as shown by Example 1, the peptide is tested in 8 runs of the hGIPR CAMP assay. […] Accordingly, each Example will use the geometric mean of those values to normalize the Example assay runs.

[2] = target: T2, human glucose-dependent insulinotropic peptide receptor (GIPR) (Homo sapiens, UniProt P48546); conditions: HEK293 cells expressing human GIPR, geometric mean, read-out: hGIPR cAMP Rel EC50 nM (SEM, n)
T2 construct: expressed in transfected cells; host or cells: HEK293
T2 sequence (P48546 22-466): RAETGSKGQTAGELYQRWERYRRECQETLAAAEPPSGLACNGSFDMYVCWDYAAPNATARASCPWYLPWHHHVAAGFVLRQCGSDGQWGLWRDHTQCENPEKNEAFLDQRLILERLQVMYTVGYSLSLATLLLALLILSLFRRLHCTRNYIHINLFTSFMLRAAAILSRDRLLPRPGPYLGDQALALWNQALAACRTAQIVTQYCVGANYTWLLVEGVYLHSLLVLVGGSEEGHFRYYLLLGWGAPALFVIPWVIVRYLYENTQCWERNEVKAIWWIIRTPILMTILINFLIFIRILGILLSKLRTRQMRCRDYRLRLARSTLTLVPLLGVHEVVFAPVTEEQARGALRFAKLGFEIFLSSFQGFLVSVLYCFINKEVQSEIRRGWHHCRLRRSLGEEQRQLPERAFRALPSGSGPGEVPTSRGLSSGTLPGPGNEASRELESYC
Description: as §1, §2, §3, §4, §5

[3] = target: T3, human GLP-1 receptor (GLP-1R) (Homo sapiens, UniProt P43220); conditions: HEK293 cells expressing human GLP-1R, geometric mean, read-out: hGLP1R cAMP Rel EC50 nM (SEM, n)
T3 construct: expressed in transfected cells; host or cells: HEK293
T3 sequence (P43220 24-463): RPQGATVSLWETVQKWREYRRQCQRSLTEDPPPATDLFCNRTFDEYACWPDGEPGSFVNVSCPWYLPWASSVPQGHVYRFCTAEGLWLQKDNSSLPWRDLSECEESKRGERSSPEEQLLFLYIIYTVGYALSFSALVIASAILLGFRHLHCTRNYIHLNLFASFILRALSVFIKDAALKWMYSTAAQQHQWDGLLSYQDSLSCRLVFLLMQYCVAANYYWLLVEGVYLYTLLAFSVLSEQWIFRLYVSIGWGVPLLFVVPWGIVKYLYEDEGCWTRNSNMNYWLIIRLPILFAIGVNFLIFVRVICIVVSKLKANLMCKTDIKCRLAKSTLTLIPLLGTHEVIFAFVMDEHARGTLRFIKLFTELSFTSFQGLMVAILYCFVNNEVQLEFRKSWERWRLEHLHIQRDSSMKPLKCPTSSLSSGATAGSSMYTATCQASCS
Description: as §1, §2, §3, §4, §5

Row | Structure (SMILES) | EC50 [1] [nM] | EC50 [2] [nM] | EC50 [3] [nM]
1 | CC[C@H](C)[C@H](NC(=O)[C@H](CO)NC(=O)[C@H](Cc1ccc(O)cc1)NC(=O)[C@H](CC(=O)O)NC(=O)[C@H](CO)NC(=O)[C@@H](NC(=O)[C@H](Cc1ccccc1)NC(=O)[C@@H](NC(=O)CNC(=O)[C@H](CCC(=O)O)NC(=O)[C@@H](C)NC(=O)[C@@H](N)Cc1ccc(O)cc1)[C@@H](C)O)[C@@H](C)CC)C(=O)N[C@@H](CC(C)C)C(=O)N[C@@H](CC(C)C)C(=O)N[C@@H](CC(=O)O)C(=O)N[C@@H](CCCCN)C(=O)N[C@@H](CCCCNC(=O)COCCOCCNC(=O)COCCOCCNC(=O)CC[C@H](NC(=O)CCCCCCCCCCCCCCCCC(=O)O)C(=O)O)C(=O)N[C@@H](C)C(=O)N[C@@H](CCC(N)=O)C(=O)NC(C)(C)C(=O)N[C@@H](CCC(=O)O)C(=O)N[C@@H](Cc1ccccc1)C(=O)N[C@H](C(=O)N[C@@H](CCC(N)=O)C(=O)N[C@@H](Cc1c[nH]c2ccccc12)C(=O)N[C@@H](CC(C)C)C(=O)N[C@@H](CC(C)C)C(=O)N[C@@H](C)C(=O)NCC(=O)NCC(=O)N1CCC[C@H]1C(=O)N[C@@H](CO)C(=O)N[C@@H](CO)C(=O)NCC(=O)N[C@@H](C)C(=O)N1CCC[C@H]1C(=O)N1CCC[C@H]1C(=O)N1CCC[C@H]1C(=O)N[C@@H](CO)C(N)=O)C(C)C [Example 27] (H-Y[dA]EGTFISDYSILLDKK([AEEA-AEEA-γGlu-C18 diacid])AQ[Aib]EFVQWLLAGGPSSGAPPPS-NH2) | > 5000 | 0.0132 | > 5000
2 | CC[C@H](C)[C@H](NC(=O)[C@H](CO)NC(=O)[C@H](Cc1ccc(O)cc1)NC(=O)[C@H](CC(=O)O)NC(=O)[C@H](CO)NC(=O)[C@@H](NC(=O)[C@H](Cc1ccccc1)NC(=O)[C@@H](NC(=O)CNC(=O)[C@H](CCC(=O)O)NC(=O)[C@@H](C)NC(=O)[C@@H](N)Cc1ccc(O)cc1)[C@@H](C)O)[C@@H](C)CC)C(=O)N[C@@H](CC(C)C)C(=O)N[C@@H](CC(C)C)C(=O)N[C@@H](CC(=O)O)C(=O)N[C@@H](CCCCN)C(=O)N[C@@H](CCCCNC(=O)COCCOCCNC(=O)COCCOCCNC(=O)CC[C@H](NC(=O)CCCCCCCCCCCCCCCCCCC(=O)O)C(=O)O)C(=O)N[C@@H](Cc1c[nH]cn1)C(=O)N[C@@H](CCC(N)=O)C(=O)N[C@@H](CCC(N)=O)C(=O)N[C@@H](CCC(=O)O)C(=O)N[C@@H](Cc1ccccc1)C(=O)N[C@H](C(=O)N[C@@H](CC(N)=O)C(=O)N[C@@H](Cc1c[nH]c2ccccc12)C(=O)N[C@@H](CC(C)C)C(=O)N[C@@H](CC(C)C)C(=O)N[C@@H](C)C(=O)N[C@@H](CCC(N)=O)C(=O)NCC(=O)N1CCC[C@H]1C(=O)N[C@@H](CO)C(=O)N[C@@H](CO)C(=O)NCC(=O)N[C@@H](C)C(=O)N1CCC[C@H]1C(=O)N1CCC[C@H]1C(=O)N1CCC[C@H]1C(=O)N[C@@H](CO)C(N)=O)C(C)C [Example 13] (H-Y[dA]EGTFISDYSILLDKK([AEEA-AEEA-γGlu-C20 diacid])HQQEFVNWLLAQGPSSGAPPPS-NH2) | > 5000 | 0.129 | > 100
3 | CC[C@H](C)[C@H](NC(=O)[C@H](CO)NC(=O)[C@H](Cc1ccc(O)cc1)NC(=O)[C@H](CC(=O)O)NC(=O)[C@H](CO)NC(=O)[C@@H](NC(=O)[C@](C)(Cc1ccccc1F)NC(=O)[C@@H](NC(=O)CNC(=O)[C@H](CCC(=O)O)NC(=O)C(C)(C)NC(=O)[C@@H](N)Cc1ccc(O)cc1)[C@@H](C)O)[C@@H](C)CC)C(=O)N[C@@H](CC(C)C)C(=O)N[C@@H](CC(C)C)C(=O)N[C@@H](CC(=O)O)C(=O)N[C@@H](CCCCN)C(=O)N[C@H](C(=O)N[C@@H](Cc1c[nH]cn1)C(=O)N[C@@H](CCC(N)=O)C(=O)NC(C)(C)C(=O)N[C@@H](CC(=O)O)C(=O)N[C@@H](Cc1ccccc1)C(=O)N[C@H](C(=O)N[C@@H](CCC(=O)O)C(=O)N[C@@H](Cc1ccncc1)C(=O)N[C@@H](CCCCNC(=O)COCCOCCNC(=O)COCCOCCNC(=O)CC[C@H](NC(=O)CCCCCCCCCCCCCCCCCCC(=O)O)C(=O)O)C(=O)N[C@@H](CC(C)C)C(=O)N[C@@H](CCC(=O)O)C(=O)NCC(=O)NCC(=O)N1CCC[C@H]1C(=O)N[C@@H](CO)C(=O)N[C@@H](CO)C(=O)NCC(=O)N[C@@H](C)C(=O)N1CCC[C@H]1C(=O)N1CCC[C@H]1C(=O)N1CCC[C@H]1C(=O)N[C@@H](CO)C(N)=O)C(C)C)[C@@H](C)CC [Example 119] (H-Y[Aib]EGT[αMePhe(2-F)]ISDYSILLDKIHQ[Aib]DFVE[4Pal]K([AEEA-AEEA-γGlu-C20 diacid])LEGGPSSGAPPPS-NH2) | > 5000 | 0.022 | > 5000
4 | CC[C@H](C)[C@H](NC(=O)[C@H](CCCN)NC(=O)[C@H](CC(=O)O)NC(=O)[C@H](CC(C)C)NC(=O)[C@](C)(CC(C)C)NC(=O)[C@@H](NC(=O)[C@H](CO)NC(=O)[C@H](Cc1ccc(O)cc1)NC(=O)[C@H](CC(=O)O)NC(=O)[C@H](CO)NC(=O)[C@@H](NC(=O)[C@H](Cc1ccccc1)NC(=O)[C@@H](NC(=O)CNC(=O)[C@H](CCC(=O)O)NC(=O)C(C)(C)NC(=O)[C@@H](N)Cc1ccc(O)cc1)[C@@H](C)O)[C@@H](C)CC)[C@@H](C)CC)C(=O)N[C@@H](Cc1c[nH]cn1)C(=O)N[C@@H](CCC(N)=O)C(=O)NC(C)(C)C(=O)N[C@@H](CCC(=O)O)C(=O)N[C@@H](Cc1ccccc1)C(=O)N[C@H](C(=O)N[C@@H](CCC(=O)O)C(=O)N[C@@H](Cc1ccncc1)C(=O)N[C@@H](CCCCNC(=O)COCCOCCNC(=O)COCCOCCNC(=O)CC[C@H](NC(=O)CCCCCCCCCCCCCCCCCCC(=O)O)C(=O)O)C(=O)N[C@@H](CC(C)C)C(=O)N[C@@H](CCC(=O)O)C(=O)N[C@@H](C)C(=O)NCC(=O)N1CCC[C@H]1C(=O)N[C@@H](CO)C(=O)N[C@@H](CO)C(=O)NCC(=O)N[C@@H](C)C(=O)N1CCC[C@H]1C(=O)N1CCC[C@H]1C(=O)N1CCC[C@H]1C(=O)N[C@@H](CO)C(N)=O)C(C)C [Example 122] (H-Y[Aib]EGTFISDYSI[αMeL]LD[Orn]IHQ[Aib]EFVE[4Pal]K([AEEA-AEEA-γGlu-C20 diacid])LEAGPSSGAPPPS-NH2) | > 5000 | 0.01 | > 5000
5 | CC[C@H](C)[C@H](NC(=O)[C@H](Cc1ccccc1)NC(=O)[C@@H](NC(=O)CNC(=O)[C@H](CCC(=O)O)NC(=O)C(C)(C)NC(=O)[C@@H](N)Cc1ccc(O)cc1)[C@@H](C)O)C(=O)N[C@@H](CO)C(=O)N[C@@H](CC(=O)O)C(=O)N[C@@H](Cc1ccc(O)cc1)C(=O)N[C@@H](CO)C(=O)N[C@H](C(=O)N[C@@](C)(CC(C)C)C(=O)N[C@@H](CC(C)C)C(=O)N[C@@H](CC(=O)O)C(=O)N[C@@H](CCCCN)C(=O)N[C@@H](CCCCNC(=O)COCCOCCNC(=O)COCCOCCNC(=O)CC[C@H](NC(=O)CCCCCCCCCCCCCCCCCCC(=O)O)C(=O)O)C(=O)N[C@@H](Cc1c[nH]cn1)C(=O)N[C@@H](CCC(N)=O)C(=O)NC(C)(C)C(=O)N[C@@H](CC(=O)O)C(=O)N[C@@H](Cc1ccccc1)C(=O)N[C@H](C(=O)N[C@@H](CCC(=O)O)C(=O)N[C@@H](Cc1ccncc1)C(=O)N[C@@H](CC(C)C)C(=O)N[C@@H](CC(C)C)C(=O)N[C@@H](C)C(=O)N[C@@H](CCC(N)=O)C(=O)NCC(=O)N1CCC[C@H]1C(=O)N[C@@H](CO)C(=O)N[C@@H](CO)C(=O)NCC(=O)N[C@@H](C)C(=O)N1CCC[C@H]1C(=O)N1CCC[C@H]1C(=O)N1CCC[C@H]1C(=O)N[C@@H](CO)C(N)=O)C(C)C)[C@@H](C)CC [Example 79] (H-Y[Aib]EGTFISDYSI[αMeL]LDKK([AEEA-AEEA-γGlu-C20 diacid])HQ[Aib]DFVE[4Pal]LLAQGPSSGAPPPS-NH2) | > 5000 | 0.0316 | > 5000
